Molecules are shown by their SMILES.

The nature of data set [1]: The drug is tested on WLS-370 corresponding to human gut metagenome with ENA study accession number: PRJEB37062 and ENA sample accession number: ERS12561793 for biotransformation under anaerobic condition. The drug concentrations were measured over 9 timepoints collected between 0 and 24 hours of incubation by liquid-chromatography-coupled mass spectrometry (LC–MS). As to conditions: 2 µM.

A short description of data set [2]: The drug is tested on WLS-098 corresponding to human gut metagenome with ENA study accession number: PRJEB37062 and ENA sample accession number: ERS12561754 for biotransformation under anaerobic condition. The drug concentrations were measured over 9 timepoints collected between 0 and 24 hours of incubation by liquid-chromatography-coupled mass spectrometry (LC–MS). To be noted: 2 µM.

A short description of data set [3]: The drug is tested on WLS-090 corresponding to human gut metagenome with ENA study accession number: PRJEB37062 and ENA sample accession number: ERS12561753 for biotransformation under anaerobic condition. The drug concentrations were measured over 9 timepoints collected between 0 and 24 hours of incubation by liquid-chromatography-coupled mass spectrometry (LC–MS). To be noted: 2 µM.

The nature of data set [4]: The drug is tested on WLS-082 corresponding to human gut metagenome with ENA study accession number: PRJEB37062 and ENA sample accession number: ERS12561751 for biotransformation under anaerobic condition. The drug concentrations were measured over 9 timepoints collected between 0 and 24 hours of incubation by liquid-chromatography-coupled mass spectrometry (LC–MS). To be noted: 2 µM.

For data set [5] the following is noted: human gut metagenome, 24 h, 2 µM.
For data set [6] the following is noted: human gut metagenome, 24 h, 2 µM. The source holds these as a separate data set.
The conditions of data set [7]: human gut metagenome, 24 h, 2 µM. The source holds these as a separate data set.
For data set [8] the following is noted: human gut metagenome, 24 h, 2 µM. The source holds these as a separate data set.
For data set [9] the following is noted: human gut metagenome, 24 h, 2 µM. The source holds these as a separate data set.
Further: call rule not given here.

For `Br.CN1CCC[C@@H]1Cc1c[nH]c2ccc(CCS(=O)(=O)c3ccccc3)cc12` [ELETRIPTAN HYDROBROMIDE], the “Bacterial Biotransformation” value in [1] was “Compound NOT metabolized”; in [2], “Compound metabolized”; in data set [3] it was “Compound metabolized”; in [4], “Compound NOT metabolized”; in [5], “Compound NOT metabolized”; in data set [6], “Compound NOT metabolized”. Besides, the “Bacterial Biotransformation” value in [7], in data set [8] and in data set [9] was “Compound metabolized” in each case.
As to `COc1cc(NC(C)CCCN)c2ncccc2c1.O=P(O)(O)O.O=P(O)(O)O` (stereo not given) [PRIMAQUINE PHOSPHATE], the “Bacterial Biotransformation” value in data set [1] is recorded as “Compound NOT metabolized”; in data set [2] it was “Compound metabolized”; in [3] it was “Compound metabolized”; in data set [4], “Compound metabolized”; in data set [5], “Compound NOT metabolized”; in [6], “Compound NOT metabolized”. The “Bacterial Biotransformation” value in data set [7] is recorded as “Compound metabolized”; in data set [8], “Compound NOT metabolized”; in data set [9], “Compound NOT metabolized”.
Turning to `CC(=O)CCCCn1c(=O)c2c(ncn2C)n(C)c1=O` [PENTOXIFYLLINE], the “Bacterial Biotransformation” value was “Compound NOT metabolized” in [1]; “Compound metabolized” in data set [2]; “Compound metabolized” in data set [3]; “Compound NOT metabolized” in data set [4]; “Compound NOT metabolized” in data set [5]; “Compound NOT metabolized” in data set [6]. The “Bacterial Biotransformation” value in data set [7] is “Compound NOT metabolized”; in [8], “Compound metabolized”; in [9] it was “Compound metabolized”.
For `Cc1cc(C)cc(OCC2CNC(=O)O2)c1` (stereo not given) [METAXALONE], the “Bacterial Biotransformation” value was “Compound metabolized” in data set [1]; “Compound metabolized” in data set [2]; “Compound metabolized” in [3]; “Compound metabolized” in data set [4]; “Compound NOT metabolized” in [5]; “Compound metabolized” in [6]. The “Bacterial Biotransformation” value in data set [7], in data set [8] and in [9] was “Compound metabolized” in each case.
On to `OCCN(CCO)c1nc(N2CCCCC2)c2nc(N(CCO)CCO)nc(N3CCCCC3)c2n1` [DIPYRIDAMOLE], for which the “Bacterial Biotransformation” value is given as “Compound metabolized” in data set [1]; “Compound metabolized” in [2]; “Compound metabolized” in data set [3]; “Compound NOT metabolized” in data set [4]; “Compound metabolized” in [5]; “Compound metabolized” in [6]. Further, the “Bacterial Biotransformation” value in data set [7], in data set [8] and in data set [9] was “Compound metabolized” throughout.
As to `Nc1nnc(-c2cccc(Cl)c2Cl)c(N)n1` [LAMOTRIGINE], the “Bacterial Biotransformation” value in [1] is “Compound NOT metabolized”; in [2], “Compound metabolized”; in [3] it was “Compound metabolized”; in data set [4], “Compound NOT metabolized”; in [5] it was “Compound NOT metabolized”; in [6], “Compound NOT metabolized”. The “Bacterial Biotransformation” value is “Compound NOT metabolized” in data set [7], “Compound metabolized” in data set [8] and “Compound NOT metabolized” in data set [9].
In the case of `O=C(NC(Cc1cc(=O)[nH]c2ccccc12)C(=O)O)c1ccc(Cl)cc1` (stereo not given) [REBAMIPIDE], the “Bacterial Biotransformation” value in data set [1] is on record as “Compound metabolized”; in [2], “Compound NOT metabolized”; in [3], “Compound NOT metabolized”; in data set [4], “Compound NOT metabolized”; in data set [5] it was “Compound metabolized”; in [6], “Compound metabolized”. Moreover, the “Bacterial Biotransformation” value in data set [7] is on record as “Compound metabolized”; in [8], “Compound NOT metabolized”; in data set [9], “Compound NOT metabolized”.
With `c1ccc2[nH]c(-c3cscn3)nc2c1` [THIABENDAZOLE], the “Bacterial Biotransformation” value in data set [1] was “Compound NOT metabolized”; in data set [2], “Compound metabolized”; in [3], “Compound metabolized”; in data set [4] it was “Compound NOT metabolized”; in data set [5] it was “Compound NOT metabolized”; in data set [6] it was “Compound NOT metabolized”. In addition, the “Bacterial Biotransformation” value in [7] was “Compound NOT metabolized”; in [8] it was “Compound metabolized”; in [9] it was “Compound NOT metabolized”.
For the molecule `O=C1C(CC[S+]([O-])c2ccccc2)C(=O)N(c2ccccc2)N1c1ccccc1` (stereo not given) [SULFINPYRAZONE], the “Bacterial Biotransformation” value in data set [1], in data set [2], in data set [3], in data set [4], in [5] and in data set [6] was “Compound metabolized” throughout. The “Bacterial Biotransformation” value in data set [7], in data set [8] and in data set [9] was “Compound metabolized” in each case.
As for `COc1cc(C(=O)NCc2ccc(OCCN(C)C)cc2)cc(OC)c1OC` [TRIMETHOBENZAMIDE], the “Bacterial Biotransformation” value in [1], in data set [2], in data set [3], in data set [4], in data set [5] and in data set [6] was “Compound NOT metabolized” each time. Moreover, the “Bacterial Biotransformation” value in data set [7], in [8] and in [9] was “Compound NOT metabolized” throughout.
On to `COc1ccc(C(CN(C)C)C2(O)CCCCC2)cc1` (stereo not given) [VENLAFAXINE], for which the “Bacterial Biotransformation” value in [1], in data set [2], in [3], in data set [4], in data set [5] and in [6] was “Compound NOT metabolized” throughout. The “Bacterial Biotransformation” value in data set [7] is “Compound NOT metabolized”; in data set [8], “Compound metabolized”; in data set [9] it was “Compound NOT metabolized”.
Turning to `OC(c1cc(C(F)(F)F)nc2c(C(F)(F)F)cccc12)C1CCCCN1` (stereo not given) [MEFLOQUINE], the “Bacterial Biotransformation” value in data set [1] is listed as “Compound metabolized”; in data set [2] it was “Compound NOT metabolized”; in [3], “Compound metabolized”; in [4], “Compound metabolized”; in data set [5], “Compound metabolized”; in data set [6] it was “Compound NOT metabolized”. For the same molecule, the “Bacterial Biotransformation” value in [7] is “Compound NOT metabolized”; in data set [8], “Compound metabolized”; in data set [9] it was “Compound NOT metabolized”.
`CCOC(=O)[C@H](CCc1ccccc1)N[C@@H](C)C(=O)N1CCC[C@H]1C(=O)O.O=C(O)/C=C\C(=O)O` [ENALAPRIL MALEATE]: the “Bacterial Biotransformation” value in [1], in data set [2], in data set [3], in data set [4], in data set [5] and in data set [6] was “Compound NOT metabolized” each time. Further, the “Bacterial Biotransformation” value in data set [7], in data set [8] and in [9] was “Compound NOT metabolized” throughout.
For `CC(=O)OCC(=O)NCCCOc1cccc(CN2CCCCC2)c1` [ROXATIDINE ACETATE], the “Bacterial Biotransformation” value in [1], in data set [2], in [3], in [4], in data set [5] and in data set [6] was “Compound metabolized” throughout. Also, the entries for the “Bacterial Biotransformation” value in data set [7], in data set [8] and in data set [9] were “Compound metabolized”, “Compound NOT metabolized” and “Compound metabolized”, respectively.
As to `CC(=O)Nc1ccc(OC(C)=O)cc1` [DIACETAMATE], the “Bacterial Biotransformation” value in data set [1], in data set [2], in [3], in data set [4], in [5] and in data set [6] was “Compound metabolized” in each case. The “Bacterial Biotransformation” value in data set [7], in data set [8] and in [9] was “Compound metabolized” in each case.

Source of the values: ChEMBL document CHEMBL5724914, “Linking interpersonal differences in gut microbiota composition and drug biotransformation activity” (2024).
